# Results taken from patent publication US20110111976A1, “MICRORNA BIOMARKERS OF TISSUE INJURY” (priority 2008, published 2011).
# Several values for one entry are separate records, joined by “and”; a condition that tells them apart may be missing. Equal values may be shown once.
# Assays:
# Sprague-Dawley rats [1] = test: Kidney histopathology (proximal tubule overall tissue injury) of toxicant-treated rats; format: in vivo, rat; conditions: Gentamicin 240 mg/kg/day intraperitoneal, Day 12, individual male rats
# Excerpt: (§1) Animals Male and female Sprague-Dawley rats were obtained from Charles River Laboratories, Inc. (Raleigh, N.C.). The rats were approximately seven to eight weeks of age and weighed from 125 to 325 grams at the start of the study. The animals were acclimated for approximately one week and randomized into treatment and control groups. During the toxicity studies targeting kidney, the animals were maintained on a caloric-restricted diet, and fasted overnight prior to necropsy. Doses were different for each model compound tested and were calculated based on animal body weight. For the compounds, routes of administration, dose groups, and time points, see the below Test Compound section.
# Sprague-Dawley rats [2] = test: miR-10a in urine of kidney-toxicant-treated rats by qPCR; format: in vivo, rat; conditions: Gentamicin 240 mg/kg/day intraperitoneal, individual male rats
# Excerpt: as §1
# Urine Samples Urine samples were collected overnight on either dry or wet ice, aliquoted, and stored at −70° C. […] Urine samples were thawed on ice and about 1 milliliter (ml) of each sample placed into a tube. Each sample was placed in a room temperature speed-vac to reduce sample volume to about 200 microliters (μl). About 1 ml of trizol was added to the viscous concentrated urine solution and RNA extracted using Ambion BlycoBlue and alcohol precipitation.
# Samples from rat toxicology studies were analyzed for miRNA levels using a qPCR-based assay (Raymond et al, 2005, RNA 11:1737; WO 2006/081282). Control slope and intercept values for miR-10a was calculated from a concentration series of miR-10a added to total yeast RNA and then analyzed using the qPCR assay. The slope and intercept values from the standard curve were used to calculate the amount of miR-10a in each sample expressed as the number of miRNA copies per 20 ng of total RNA in each sample. Cycle threshold values (Ct) for each sample were converted to miRNA copy numbers by comparison to a standard curve generated using single stranded mature miR-10a and are expressed in Table 7 as copies/20 pg input RNA (approximately equivalent to copies/cell).
# Sprague-Dawley rats [3] = test: Pooled sample study: miR-122 in blood plasma of toxicant-treated rats by qPCR; format: in vivo; conditions: pooled rat plasma (5 samples), cerivastatin 1.0 mg/kg/day oral Day 14, CBrCl3 0.1 ml/kg oral Days 2 & 4, TMPD 6 mg/kg bid s.c. Day 3
# Experimental: (§2) To explore the feasibility of detecting miRNA tissue injury biomarkers in plasma, a pilot study was performed in which pooled blood plasma samples from rat toxicology studies were analyzed using a qPCR-based assay (Raymond et at, 2005, RNA 11:1737; WO 2006/081282). The miRNAs miR-122 and miR-133 were chosen for quantification because they are extremely abundant and specific to liver and muscle, respectively (FIG. 1). Stored plasma samples from rats that had previously been treated with a liver damaging agent trichlorobromomethane (CBrCl3) or with one of two muscle damaging agents 2,3,5,6-tetramethyl-p phenylenediamine (TMPD) or cerivastatin) were assayed form miRNA levels using qPCR.
# as §1, with “liver,” for “kidney,”, “compound” for “Test Compound”
# (§3) Skeletal Muscle Toxicant • 2,3,5,6-tetramethyl-p phenylenediamine (TMPD) • Doses: 6 mg/kg bid • Dosing: 0.9% NaCl by subcutaneous injection • Animals: Sprague Dawley Male Rats • Time Points Day 3, TMPD Plasma (Day 3) and Controls (5 samples, 100 ul each pooled=500 ul total).
# (§4) Liver Toxicant • Trichlorbromomethane (CCl3Br) • Doses: 0.1 ml/kg • Dosing: 100% liquid paraffin by oral gavage • Animals: Sprague Dawley Male Rats • Time Point: Day 2, 4 CCl3Br Plasma (Days 2 & 4) and Controls (5 samples, 100 ul each pooled=500 ul total)
# (§5) Liver and Muscle Toxicant • Cerivastatin • Doses: 1.0 mg/kg/day • Dosing: 0.5% methylcellulose by oral gavage • Animals: Sprague Dawley Female Rats • Time Point Day 14 Cerivastatin Plasma (Day 14) and Controls (5 samples, 100 ul each pooled=500 μl total)
# (§6) Plasma Samples All plasma samples were collected in EDTA tubes at final necropsy from the vena cava. Samples were inverted several times, and centrifuged for 20 minutes at 2,900 RPM at 4° C. Plasma samples were removed and stored at −70° C. Pooled blood plasma samples from rat toxicology studies were analyzed using a qPCR-based assay (Raymond et al, 2005, RNA 11:1737; WO 2006/081282). Control slope and intercept values for miR-122 and miR-133 were calculated from a concentration series of each microRNA added to total yeast RNA and then analyzed using the qPCR assay for each miRNA. The slope and intercept values from the standard curve were used to calculate the amount of each respective miRNA in each sample expressed as the number of miRNA copies per 20 ng of total RNA in each sample. Cycle threshold values (Ct) for each sample were converted to miRNA copy numbers by comparison to standard curves generated using single stranded mature miRNAs and are expressed as copies/20 pg input RNA (approximately equivalent to copies/cell).
# Sprague-Dawley rats [4] = test: Pooled sample study: miR-133 in blood plasma of toxicant-treated rats by qPCR; format: in vivo; conditions: pooled rat plasma (5 samples), cerivastatin 1.0 mg/kg/day oral Day 14, CBrCl3 0.1 ml/kg oral Days 2 & 4, TMPD 6 mg/kg bid s.c. Day 3
# Experimental: as §2
# as §1, with “liver,” for “kidney,”, “compound” for “Test Compound”
# as §3, §4, §5, §6
# Sprague-Dawley rats [5] = test: Individual sample study: miR-133 in blood plasma of toxicant-treated rats by qPCR; format: in vivo, rat; conditions: Day 2, plasma, individual male rats
# Experimental: (§7) To follow up on the initial results shown in Example 2, blood samples from 44 individual rats that had been treated with varying doses of CBrCl3, CCl4 (another liver toxicant), or TMPD were evaluated using qPCR of miR-122 and miR-133. In addition, data from histopathology and a panel of standard biomarkers (ALT, AST, CK, skTnI, etc.) were also available for these same individual rats and were used to compare the results from microRNA assays with the standard histopathology and protein biomarkers.
# as §1, with “liver,” for “kidney,”, “compound” for “Test Compound”
# (§8) Skeletal Muscle Toxicant • 2,3,5,6-tetramethyl-p phenylenediamine (TMPD) • Doses: 2, 4 mg/kg bid • Dosing: 0.9% NaCl by subcutaneous injection • Animals: Sprague Dawley Male Rats • Time Points: TMPD Plasma (Day 2) and Controls (5 samples per group, […] pooled=500 μl total).
# (§9) Liver Toxicant • Trichlorobromomethane (CCl3Br) • Doses: 0.03, 0.1 ml/kg • Dosing: 100% liquid paraffin by oral gavage • Animals: Sprague Dawley Male Rats • Time Point: CCl3Br Plasma (Days 2 & 4) and Controls (4 controls, 3 samples per group, 100 μl each) • Carbon Tetrachloride (CCl4) • Doses: 0.03, 0.1, 0.3 ml/kg • Dosing: 100% liquid paraffin by oral gavage • Animals: Sprague Dawley Male Rats • Time Point: CCl4 Plasma (Days 2) and Controls (4 samples per group, 100 μl each)
# as §6, with “are expressed in Table 4 as copies/20” for “are expressed as copies/20”
# Sprague-Dawley rats [6] = test: Individual sample study: miR-122 in blood plasma of toxicant-treated rats by qPCR; format: in vivo, rat; conditions: Day 2, plasma, individual male rats
# Experimental: as §7
# as §1, with “liver,” for “kidney,”, “compound” for “Test Compound”
# as §8, §9
# as §6, with “are expressed in Table 4 as copies/20” for “are expressed as copies/20”
# Sprague-Dawley rats [7] = test: Liver histopathology scores of toxicant-treated rats; format: in vivo, rat; conditions: TMPD-treated rats
# Experimental: as §7
# as §1, with “liver,” for “kidney,”, “compound” for “Test Compound”
# as §9
# Sprague-Dawley rats [8] = test: Clinical chemistry (AST, ALT, CK) in blood plasma of toxicant-treated rats; format: in vivo, rat; conditions: for ALT / AST / CK: Day 2, plasma, individual male rats
# Experimental: as §7
# as §1, with “liver,” for “kidney,”, “compound” for “Test Compound”
# as §8, §9
# Sprague-Dawley rats [9] = test: Muscle histopathology (quad, soleus) of TMPD-treated rats; format: in vivo, rat; design: key: 1 = very slight; 2 = slight or small; 3 = moderate; 4 = marked; 5 = severe tissue injury; conditions: Day 2, individual male rats
# Experimental: as §7
# as §1, with “liver,” for “kidney,”, “compound” for “Test Compound”
# as §8
compound,measurement,setting,value
Gentamicin,Kidney Histopathology: Proximal tubule overall tissue injury (highest severity grade measured at Day 12),Sprague-Dawley rats [1],5
same,miR-10a,"Sprague-Dawley rats [2]; Day 3, urine",11.98 copies/20 pg input RNA and 3.51 copies/20 pg input RNA and 0.03 copies/20 pg input RNA and 0.05 copies/20 pg input RNA and 10.00 copies/20 pg input RNA
same,miR-10a,"Sprague-Dawley rats [2]; Day 9, urine",0.96 copies/20 pg input RNA and 0.64 copies/20 pg input RNA and 16.88 copies/20 pg input RNA and 51.03 copies/20 pg input RNA and 6.61 copies/20 pg input RNA and 4.90 copies/20 pg input RNA and 58.70 copies/20 pg input RNA and 38.01 copies/20 pg input RNA and 25.61 copies/20 pg input RNA
same,miR-10a,"Sprague-Dawley rats [2]; Day 12, urine",3.5 copies/20 pg input RNA and 9.46 copies/20 pg input RNA and 4.17 copies/20 pg input RNA and 2.13 copies/20 pg input RNA and 4.99 copies/20 pg input RNA and 3.46 copies/20 pg input RNA and 3.86 copies/20 pg input RNA and 23.75 copies/20 pg input RNA and 10.40 copies/20 pg input RNA
"Cc1c(C)c(N)c(C)c(C)c1N [TMPD, 2,3,5,6-tetramethyl-p phenylenediamine]",miR-122 Copies,Sprague-Dawley rats [3]; 250 ng total RNA input,89353.3
same,miR-122 Ct Mean,Sprague-Dawley rats [3]; 250 ng total RNA input,26.2479
same,miR-122 Copies/20 pg,Sprague-Dawley rats [3],7.1 Copies/20 pg
same,miR-133 Copies,Sprague-Dawley rats [4]; 250 ng total RNA input,4753175
same,miR-133 Ct Mean,Sprague-Dawley rats [4]; 250 ng total RNA input,23.7323
same,miR-133 Copies/20 pg,Sprague-Dawley rats [4],380.3 Copies/20 pg
same,miR-133,Sprague-Dawley rats [5]; TMPD 2 mg/kg bid subcutaneous,0.9 copies/20 pg input RNA and 4.3 copies/20 pg input RNA and 9.3 copies/20 pg input RNA and 1.3 copies/20 pg input RNA and 4.1 copies/20 pg input RNA
same,miR-133,Sprague-Dawley rats [5]; TMPD 4 mg/kg bid subcutaneous,19.3 copies/20 pg input RNA and 63.9 copies/20 pg input RNA and 79.3 copies/20 pg input RNA and 63.8 copies/20 pg input RNA and 16.7 copies/20 pg input RNA
same,miR-122,Sprague-Dawley rats [6]; TMPD 2 mg/kg bid subcutaneous,2.6 copies/20 pg input RNA and 5.6 copies/20 pg input RNA and 7.3 copies/20 pg input RNA and 0.8 copies/20 pg input RNA and 2.2 copies/20 pg input RNA
same,miR-122,Sprague-Dawley rats [6]; TMPD 4 mg/kg bid subcutaneous,9.5 copies/20 pg input RNA and 1.8 copies/20 pg input RNA and 15.7 copies/20 pg input RNA and 11.7 copies/20 pg input RNA and 3.2 copies/20 pg input RNA
same,liver histopathology,Sprague-Dawley rats [7],no liver histopathology has been observed
same,ALT,Sprague-Dawley rats [8]; TMPD 2 mg/kg bid subcutaneous,29 U/L and 36 U/L and 37 U/L and 27 U/L and 30 U/L
same,AST,Sprague-Dawley rats [8]; TMPD 2 mg/kg bid subcutaneous,120 U/L and 164 U/L and 203 U/L and 111 U/L and 167 U/L
same,CK,Sprague-Dawley rats [8]; TMPD 2 mg/kg bid subcutaneous,424 U/L and 695 U/L and 696 U/L and 450 U/L and 463 U/L
same,ALT,Sprague-Dawley rats [8]; TMPD 4 mg/kg bid subcutaneous,60 U/L and 133 U/L and 215 U/L and 94 U/L and 56 U/L
same,AST,Sprague-Dawley rats [8]; TMPD 4 mg/kg bid subcutaneous,357 U/L and 1250 U/L and 1740 U/L and 700 U/L and 501 U/L
same,CK,Sprague-Dawley rats [8]; TMPD 4 mg/kg bid subcutaneous,363 U/L and 767 U/L and 1252 U/L and 439 U/L and 343 U/L
same,ALT versus controls,"Sprague-Dawley rats [8]; rats dosed with TMPD, plasma",significantly elevated
same,AST versus controls,"Sprague-Dawley rats [8]; rats dosed with TMPD, plasma",significantly elevated
same,Muscle Histopathology Quad (Overall Damage),Sprague-Dawley rats [9]; TMPD 2 mg/kg bid subcutaneous,0 (4×) and 1
same,Muscle Histopathology Soleus (Overall Damage),Sprague-Dawley rats [9]; TMPD 2 mg/kg bid subcutaneous,0
same,Muscle Histopathology Quad (Overall Damage),Sprague-Dawley rats [9]; TMPD 4 mg/kg bid subcutaneous,1 (3×) and 2 (2×)
same,Muscle Histopathology Soleus (Overall Damage),Sprague-Dawley rats [9]; TMPD 4 mg/kg bid subcutaneous,1 (3×) and 0 (2×)
